According to patent US7071179B2, “Method of locking 1α-OH of vitamin D compounds in axial orientation” (Wisconsin Alumni Research Foundation, priority 1998, dated 2006):

Assays:
[1] = biological testing of 10,19-dihydrovitamin D3 compounds, in vivo biological response; conditions: compared among the 1α,25-dihydroxy-10,19-dihydrovitamin D3 compounds tested
[2] = system: intestinal calcium transport; experiment: intestinal calcium transport activity; conditions: in vivo

## CC(CCCC(C)(C)O)C1CCC2C(=CC=C3CC(O)CC(O)C3C)CCCC21C [1α,25-dihydroxy-10(S), 19-dihydrovitamin D3]
[1]
  in vivo biological response: greatest in vivo biological response
[2]
  activity on intestinal calcium transport: very significant activity
